Results taken from PMC9860980, “Pharmacokinetics and Pharmacodynamics (PK/PD) of Corallopyronin A against Methicillin-Resistant Staphylococcus aureus” (Pharmaceutics, 2022).
Like-named read-outs stand apart in the source and are kept apart here.

Test system: S. aureus strain ATCC 33591 (MRSA-strain)
Protocol: Organ samples were thawed and homogenized using a Polytron tissue homogenizer after addition of 3 mL isotonic sodium chloride solution. First, a calibration curve was prepared by spiking different concentrations of CorA into the respective matrix from CD-1 mice. Caffeine was used as an internal standard. In addition, quality control samples (QCs) were prepared for CorA for every matrix. For PD samples, calibration curve and QCs were prepared for levofloxacin using the same protocol. The following extraction procedure was used: 50 µL of a sample (calibration sample, QCs, PK or PD sample) was extracted with 20 µL of acetic acid in water (10/90 (v/v)) and 30 µL acetonitrile for 5 min at 800 rpm on an Eppendorf MixMate® vortex mixer. Then, samples were spun down for 20 min at 4 °C and 4000 rpm and supernatants were transferred to new Greiner 96-well V-bottom plates. Samples were analyzed using an Agilent 1290 Infinity II HPLC system (Waldbronn, Germany) coupled to an AB Sciex QTrap6500plus mass spectrometer (Darmstadt, Germany). LC conditions were as follows: column: Agilent Zorbax Exlipse Plus C18, 50 × 2.1 mm, 1.8 µm; temperature: 30 °C; injection volume: 5 µL per sample; flow rate: 800 µL/min. Samples were run under buffered conditions: A: 95% water + 5% acetonitrile + 5 mM ammonium acetate + 40 µL/L acetic acid; B: 95% acetonitrile + 5% water + 5 mM ammonium acetate + 40 µL/L acetic acid. The gradient was as follows: 99% A at 0 min, 99% A until 0.1 min, 99–0% A from 0.1 min to 4.0 min, 0% A until 4.5 min. Mass transitions for controls and compounds are depicted in Table S1. Peaks of PK samples were quantified using the calibration curve. The accuracy of the calibration curve was determined using QCs independently prepared on different days. PK parameters were determined using a non-compartmental analysis with PKSolver.
Inocula were prepared as described previously with the modification that isotonic sodium chloride solution was used instead of PBS [25]. For the neutropenic thigh and the neutropenic lung infection model the S. aureus strain ATCC 33591 (MRSA-strain) was used. For the neutropenic lung infection model an inoculum of 2 × 10^9 cfu/mL was used. For the neutropenic thigh infection model an inoculum of 7 × 10^5 cfu/mL was used.
The model was conducted as described previously. In brief, the following groups were used: (1) inoculum control group with terminal endpoint at 2 h post infection to determine baseline inoculum in vivo; (2) vehicle-treated group receiving 20 mg/kg SC tramadol and vehicle (PEG400/PBS (80:20 (v/v)); (3) levofloxacin group 5 mg/kg IP three times a day (TID) (t = 2, 6 and 10 h post infection); (4) CorA 60 mg/kg IP TID (t = 2, 6 and 10 h post infection) and (5) CorA 100 mg/kg IP BID (t = 2 and 6 h post infection). The endpoint for groups no. 2–5 was 24 h post infection. A solution of […].

SMILES: C/C=C/C/C=C(\C)C(O)CC/C(C)=C/C=C(\C)C(=O)c1c(O)cc([C@H](C)CC/C=C/NC(=O)OC)oc1=O (stereo partly shown) [CorA, Corallopyronin A]
- terminal thigh concentrations lower than in the group at 100 mg/kg IP BID (60 mg/kg IP BID (so in the source) vs 100 mg/kg IP BID, thigh): more than 10 fold
- terminal level in lung tissue (60 mg/kg IP TID): not detected
- bacterial burden in lung tissue (60 mg/kg IP TID, 24 h post infection, secondary seeding, vs vehicle): did not show any effect
- bacterial burden in thigh tissue (60 mg/kg IP TID, 24 h post infection, vs vehicle): did not show any effect
- terminal level in lung tissue (100 mg/kg IP BID): detected at low levels
- terminal liver levels lower than at 60 mg/kg IP TID (100 mg/kg IP BID vs 60 mg/kg IP TID, liver): more than 5 fold
- bacterial burden in thigh (100 mg/kg IP BID, 24 h post infection): significant reduction
